# PMC11542720, “Modelling of chromatographic and electrophoretic behaviour of imidazoline and alpha adrenergic receptors ligands under different acid-base conditions” (ADMET & DMPK, 2024)
# Structures can show the parent of a compound that is named as a salt.
# Experiment: RP-HPLC retention on XTerra RP18, methanol/buffer; extrapolated retention factor log kw and slope S
# Format: physicochemical
# Conditions: pH 4.4; intercept, extrapolated to 100 % buffer; methanol/buffer, 25 °C
row,SMILES,log kw
1,"N=C(N)NC(=O)c1nc(Cl)c(N)nc1N [Amiloride, Amiloride hydrochloride]",1.11 ± 0.04
2,"CN[C@@H](C)[C@@H](O)c1ccccc1 [Pseudoephedrine, pseudoephedrine hydrochloride]",0.60 ± 0.03
3,"CCOc1ccccc1OCCN[C@H](C)Cc1ccc(OC)c(S(N)(=O)=O)c1 [Tamsulosin, tamsulosin hydrochloride]",2.22 ± 0.05
4,"Cc1cc(C(C)(C)C)cc(C)c1CC1=NCCN1 [Xylometazoline, xylometazoline hydrochloride]",2.61 ± 0.00
5,"C1COC(NC(C2CC2)C2CC2)=N1 [Rilmenidine, rilmenidine hemifumarate]",0.92 ± 0.03
6,"Clc1cccc(Cl)c1N=C1NCCN1 [Clonidine, Clonidine hydrochloride]",0.82 ± 0.02
7,"CN[C@@H](C)[C@H](O)c1ccccc1 [Ephedrine, ephedrine hydrochloride]",0.56 ± 0.02
8,"COc1ccccc1OCCNCC(O)COc1cccc2[nH]c3ccccc3c12 (centres unmarked) [Carvedilol, carvedilol]",3.75 ± 0.04
9,"Cc1cc2c(s1)Nc1ccccc1N=C2N1CCN(C)CC1 [Olanzapine, olanzapine]",1.64 ± 0.04

# Same assay, conditions: pH 4.4; intercept, extrapolated to 100 % buffer; methanol/buffer, 25 °C; listed as carvedilol
row,SMILES,log kw
1,"COc1ccccc1OCCNCC(O)COc1cccc2[nH]c3ccccc3c12 (centres unmarked) [Carvedilol, carvedilol]",3.75

# Same assay, conditions: pH 4.4; slope of log k vs methanol volume fraction
row,SMILES,S (slope)
1,"N=C(N)NC(=O)c1nc(Cl)c(N)nc1N [Amiloride, Amiloride hydrochloride]",-3.31 ± 0.09
2,"CN[C@@H](C)[C@@H](O)c1ccccc1 [Pseudoephedrine, pseudoephedrine hydrochloride]",-2.60 ± 0.10
3,"CCOc1ccccc1OCCN[C@H](C)Cc1ccc(OC)c(S(N)(=O)=O)c1 [Tamsulosin, tamsulosin hydrochloride]",-4.73 ± 0.13
4,"Cc1cc(C(C)(C)C)cc(C)c1CC1=NCCN1 [Xylometazoline, xylometazoline hydrochloride]",-4.22 ± 0.01
5,"C1COC(NC(C2CC2)C2CC2)=N1 [Rilmenidine, rilmenidine hemifumarate]",-2.88 ± 0.09
6,"Clc1cccc(Cl)c1N=C1NCCN1 [Clonidine, Clonidine hydrochloride]",-2.74 ± 0.05
7,"CN[C@@H](C)[C@H](O)c1ccccc1 [Ephedrine, ephedrine hydrochloride]",-2.41 ± 0.08
8,"COc1ccccc1OCCNCC(O)COc1cccc2[nH]c3ccccc3c12 (centres unmarked) [Carvedilol, carvedilol]",-5.84 ± 0.07
9,"Cc1cc2c(s1)Nc1ccccc1N=C2N1CCN(C)CC1 [Olanzapine, olanzapine]",-3.37 ± 0.11

# Same assay, conditions: pH 7.4; intercept, extrapolated to 100 % buffer; methanol/buffer, 25 °C
row,SMILES,log kw
1,"N=C(N)NC(=O)c1nc(Cl)c(N)nc1N [Amiloride, Amiloride hydrochloride]",1.05 ± 0.04
2,"CN[C@@H](C)[C@@H](O)c1ccccc1 [Pseudoephedrine, pseudoephedrine hydrochloride]",0.61 ± 0.02
3,"CCOc1ccccc1OCCN[C@H](C)Cc1ccc(OC)c(S(N)(=O)=O)c1 [Tamsulosin, tamsulosin hydrochloride]",2.75 ± 0.04
4,"Cc1cc(C(C)(C)C)cc(C)c1CC1=NCCN1 [Xylometazoline, xylometazoline hydrochloride]",2.59 ± 0.02
5,"C1COC(NC(C2CC2)C2CC2)=N1 [Rilmenidine, rilmenidine hemifumarate]",0.90 ± 0.03
6,"Clc1cccc(Cl)c1N=C1NCCN1 [Clonidine, Clonidine hydrochloride]",0.98 ± 0.01
7,"CN[C@@H](C)[C@H](O)c1ccccc1 [Ephedrine, ephedrine hydrochloride]",0.57± 0.02
8,"COc1ccccc1OCCNCC(O)COc1cccc2[nH]c3ccccc3c12 (centres unmarked) [Carvedilol, carvedilol]",4.15 ± 0.08
9,"Cc1cc2c(s1)Nc1ccccc1N=C2N1CCN(C)CC1 [Olanzapine, olanzapine]",3.23 ± 0.07

# Same assay, conditions: pH 7.4; slope of log k vs methanol volume fraction
row,SMILES,S (slope)
1,"N=C(N)NC(=O)c1nc(Cl)c(N)nc1N [Amiloride, Amiloride hydrochloride]",-3.23 ± 0.12
2,"CN[C@@H](C)[C@@H](O)c1ccccc1 [Pseudoephedrine, pseudoephedrine hydrochloride]",-2.67 ± 0.12
3,"CCOc1ccccc1OCCN[C@H](C)Cc1ccc(OC)c(S(N)(=O)=O)c1 [Tamsulosin, tamsulosin hydrochloride]",-4.51 ± 0.10
4,"Cc1cc(C(C)(C)C)cc(C)c1CC1=NCCN1 [Xylometazoline, xylometazoline hydrochloride]",-4.14 ± 0.04
5,"C1COC(NC(C2CC2)C2CC2)=N1 [Rilmenidine, rilmenidine hemifumarate]",-2.35 ± 0.11
6,"Clc1cccc(Cl)c1N=C1NCCN1 [Clonidine, Clonidine hydrochloride]",-1.82 ± 0.02
7,"CN[C@@H](C)[C@H](O)c1ccccc1 [Ephedrine, ephedrine hydrochloride]",-2.49 ± 0.09
8,"COc1ccccc1OCCNCC(O)COc1cccc2[nH]c3ccccc3c12 (centres unmarked) [Carvedilol, carvedilol]",-5.44 ± 0.13
9,"Cc1cc2c(s1)Nc1ccccc1N=C2N1CCN(C)CC1 [Olanzapine, olanzapine]",-4.37 ± 0.12

# Same assay, conditions: pH 9.1; intercept, extrapolated to 100 % buffer; methanol/buffer, 25 °C
row,SMILES,log kw
1,"N=C(N)NC(=O)c1nc(Cl)c(N)nc1N [Amiloride, Amiloride hydrochloride]",0.98 ± 0.04
2,"CN[C@@H](C)[C@@H](O)c1ccccc1 [Pseudoephedrine, pseudoephedrine hydrochloride]",1.10 ± 0.02
3,"CCOc1ccccc1OCCN[C@H](C)Cc1ccc(OC)c(S(N)(=O)=O)c1 [Tamsulosin, tamsulosin hydrochloride]",3.06 ± 0.09
4,"Cc1cc(C(C)(C)C)cc(C)c1CC1=NCCN1 [Xylometazoline, xylometazoline hydrochloride]",2.79 ± 0.08
5,"C1COC(NC(C2CC2)C2CC2)=N1 [Rilmenidine, rilmenidine hemifumarate]",1.48 ± 0.02
6,"Clc1cccc(Cl)c1N=C1NCCN1 [Clonidine, Clonidine hydrochloride]",1.47 ± 0.01
7,"CN[C@@H](C)[C@H](O)c1ccccc1 [Ephedrine, ephedrine hydrochloride]",1.01 ± 0.02
8,"COc1ccccc1OCCNCC(O)COc1cccc2[nH]c3ccccc3c12 (centres unmarked) [Carvedilol, carvedilol]",4.21 ± 0.10
9,"Cc1cc2c(s1)Nc1ccccc1N=C2N1CCN(C)CC1 [Olanzapine, olanzapine]",3.28 ± 0.08

# Same assay, conditions: pH 9.1; slope of log k vs methanol volume fraction
row,SMILES,S (slope)
1,"N=C(N)NC(=O)c1nc(Cl)c(N)nc1N [Amiloride, Amiloride hydrochloride]",-2.74 ± 0.11
2,"CN[C@@H](C)[C@@H](O)c1ccccc1 [Pseudoephedrine, pseudoephedrine hydrochloride]",-2.72 ± 0.07
3,"CCOc1ccccc1OCCN[C@H](C)Cc1ccc(OC)c(S(N)(=O)=O)c1 [Tamsulosin, tamsulosin hydrochloride]",-4.97 ± 0.20
4,"Cc1cc(C(C)(C)C)cc(C)c1CC1=NCCN1 [Xylometazoline, xylometazoline hydrochloride]",-4.17 ± 0.16
5,"C1COC(NC(C2CC2)C2CC2)=N1 [Rilmenidine, rilmenidine hemifumarate]",-2.96 ± 0.06
6,"Clc1cccc(Cl)c1N=C1NCCN1 [Clonidine, Clonidine hydrochloride]",-2.71 ± 0.03
7,"CN[C@@H](C)[C@H](O)c1ccccc1 [Ephedrine, ephedrine hydrochloride]",-2.52 ± 0.05
8,"COc1ccccc1OCCNCC(O)COc1cccc2[nH]c3ccccc3c12 (centres unmarked) [Carvedilol, carvedilol]",-5.56 ± 0.18
9,"Cc1cc2c(s1)Nc1ccccc1N=C2N1CCN(C)CC1 [Olanzapine, olanzapine]",-4.46 ± 0.14

# Experiment: Capillary electrophoresis, effective electrophoretic mobility (acetone as EOF marker)
# Format: physicochemical
# Conditions: pH 4.4
row,SMILES,μeff4.4 (effective electrophoretic mobility)
1,"Cc1cc2c(s1)Nc1ccccc1N=C2N1CCN(C)CC1 [Olanzapine, olanzapine]",33.632 ± 0.036 10^-5 cm^2 / V s

# Same assay, conditions: pH 4.4; I = 25 mmol/L, 11 kV, 25 °C, three replicates
row,SMILES,µeff4.4
1,"N=C(N)NC(=O)c1nc(Cl)c(N)nc1N [Amiloride, Amiloride hydrochloride]",25.939 ± 0.080 10^-5 cm^2 V^-1 s^-1
2,"CN[C@@H](C)[C@@H](O)c1ccccc1 [Pseudoephedrine, pseudoephedrine hydrochloride]",26.633 ± 0.043 10^-5 cm^2 V^-1 s^-1
3,"CCOc1ccccc1OCCN[C@H](C)Cc1ccc(OC)c(S(N)(=O)=O)c1 [Tamsulosin, tamsulosin hydrochloride]",17.310 ± 0.002 10^-5 cm^2 V^-1 s^-1
4,"Cc1cc(C(C)(C)C)cc(C)c1CC1=NCCN1 [Xylometazoline, xylometazoline hydrochloride]",21.032 ± 0.019 10^-5 cm^2 V^-1 s^-1
5,"C1COC(NC(C2CC2)C2CC2)=N1 [Rilmenidine, rilmenidine hemifumarate]",25.350 ± 0.121 10^-5 cm^2 V^-1 s^-1
6,"Clc1cccc(Cl)c1N=C1NCCN1 [Clonidine, Clonidine hydrochloride]",25.952 ± 0.084 10^-5 cm^2 V^-1 s^-1
7,"CN[C@@H](C)[C@H](O)c1ccccc1 [Ephedrine, ephedrine hydrochloride]",25.942 ± 0.032 10^-5 cm^2 V^-1 s^-1
8,"COc1ccccc1OCCNCC(O)COc1cccc2[nH]c3ccccc3c12 (centres unmarked) [Carvedilol, carvedilol]",18.061 ± 0.029 10^-5 cm^2 V^-1 s^-1
9,"Cc1cc2c(s1)Nc1ccccc1N=C2N1CCN(C)CC1 [Olanzapine, olanzapine]",33.632 ± 0.036 10^-5 cm^2 V^-1 s^-1

# Same assay, conditions: pH 7.4; I = 25 mmol/L, 11 kV, 25 °C, three replicates
row,SMILES,µeff7.4
1,"N=C(N)NC(=O)c1nc(Cl)c(N)nc1N [Amiloride, Amiloride hydrochloride]",21.786 ± 0.082 10^-5 cm^2 V^-1 s^-1
2,"CN[C@@H](C)[C@@H](O)c1ccccc1 [Pseudoephedrine, pseudoephedrine hydrochloride]","23.691 ± 0,051 10^-5 cm^2 V^-1 s^-1"
3,"CCOc1ccccc1OCCN[C@H](C)Cc1ccc(OC)c(S(N)(=O)=O)c1 [Tamsulosin, tamsulosin hydrochloride]",14.444 ± 0.058 10^-5 cm^2 V^-1 s^-1
4,"Cc1cc(C(C)(C)C)cc(C)c1CC1=NCCN1 [Xylometazoline, xylometazoline hydrochloride]",19.943 ± 0.006 10^-5 cm^2 V^-1 s^-1
5,"C1COC(NC(C2CC2)C2CC2)=N1 [Rilmenidine, rilmenidine hemifumarate]",22.551 ± 0.029 10^-5 cm^2 V^-1 s^-1
6,"Clc1cccc(Cl)c1N=C1NCCN1 [Clonidine, Clonidine hydrochloride]",19.607 ± 0.132 10^-5 cm^2 V^-1 s^-1
7,"CN[C@@H](C)[C@H](O)c1ccccc1 [Ephedrine, ephedrine hydrochloride]",23.199 ± 0.103 10^-5 cm^2 V^-1 s^-1
8,"COc1ccccc1OCCNCC(O)COc1cccc2[nH]c3ccccc3c12 (centres unmarked) [Carvedilol, carvedilol]",13.057 ± 0.052 10^-5 cm^2 V^-1 s^-1
9,"Cc1cc2c(s1)Nc1ccccc1N=C2N1CCN(C)CC1 [Olanzapine, olanzapine]",10.679 ± 0.039 10^-5 cm^2 V^-1 s^-1

# Same assay, conditions: pH 9.1; I = 25 mmol/L, 11 kV, 25 °C, three replicates
row,SMILES,µeff9.1
1,"N=C(N)NC(=O)c1nc(Cl)c(N)nc1N [Amiloride, Amiloride hydrochloride]",6.416 ± 0.022 10^-5 cm^2 V^-1 s^-1
2,"CN[C@@H](C)[C@@H](O)c1ccccc1 [Pseudoephedrine, pseudoephedrine hydrochloride]",9.299 ± 0.058 10^-5 cm^2 V^-1 s^-1
3,"CCOc1ccccc1OCCN[C@H](C)Cc1ccc(OC)c(S(N)(=O)=O)c1 [Tamsulosin, tamsulosin hydrochloride]",2.472 ± 0.133 10^-5 cm^2 V^-1 s^-1
4,"Cc1cc(C(C)(C)C)cc(C)c1CC1=NCCN1 [Xylometazoline, xylometazoline hydrochloride]",20.627 ± 0.015 10^-5 cm^2 V^-1 s^-1
5,"C1COC(NC(C2CC2)C2CC2)=N1 [Rilmenidine, rilmenidine hemifumarate]",14.065 ± 0.214 10^-5 cm^2 V^-1 s^-1
6,"Clc1cccc(Cl)c1N=C1NCCN1 [Clonidine, Clonidine hydrochloride]",2.575 ± 0.060 10^-5 cm^2 V^-1 s^-1
7,"CN[C@@H](C)[C@H](O)c1ccccc1 [Ephedrine, ephedrine hydrochloride]",18.047 ± 0.070 10^-5 cm^2 V^-1 s^-1
8,"COc1ccccc1OCCNCC(O)COc1cccc2[nH]c3ccccc3c12 (centres unmarked) [Carvedilol, carvedilol]",1.693 ± 0.071 10^-5 cm^2 V^-1 s^-1
9,"Cc1cc2c(s1)Nc1ccccc1N=C2N1CCN(C)CC1 [Olanzapine, olanzapine]",1.241 ± 0.029 10^-5 cm^2 V^-1 s^-1
